The values that follow come from patent US4410537A, “Pharmaceutical ethers” (Burroughts Wellcome Co., priority 1979, dated 1983).

The subject of data set [1] is haemoglobin. Put plainly: Effect on the oxygen-dissociation curve of whole rat blood in vitro. The data set is classed as cell-based. As for the experimental part: (§1) Compound (Ia) was dissolved in isotonic saline containing sodium bicarbonate 25 mM. […] The mixtures were incubated (30 mins, 37° C.) and the oxygen-dissociation curve for each then measured using a whole-blood spectrophotometer (Hem-O-Scan, Trade Name).
Blood (6.5 ml) from an adult albino rat, exsanguinated via the abdominal aorta under ether anaesthesia, was mixed with acid-citratedextrose anticoagulant (1.5 ml). […] Both samples were incubated (30 mins, 37° C.) and the oxygen-dissociation curve of each measured as in (A).

Data set [2] deals with haemoglobin. Put plainly: Effect on the oxygen-dissociation curve of whole normal human blood in vitro. It is filed as cell-based. Particulars: for Mean p50: normal human blood, 30 mins, 37° C., control 26.0. As to the method:
as §1

The nature of data set [3]: Acute oral toxicity in mice. Particulars: mouse, in vivo, solution in sodium bicarbonate-saline.
The test system of data set [4] is haemoglobin. The experiment in a line: Effect on the oxygen-dissociation curve of whole rat blood in vivo. The following applies: for Mean p50: 1 hour, rat. As for the experimental part: as §1
Female albino rats (100-120 g) were fasted for 24 hrs with water available ad lib. Compound (Ia) was dissolved in isotonic saline containing sodium bicarbonate 25 mM and administered to two rats orally (500 mg/kg) and to two rats intravenously (100 mg/kg): appropriate vehicle controls were administered simultaneously to control animals. After 1 hour all animals were exsanguinated via the abdominal aorta under chloroform anaesthesia: 2.5 ml of blood from each was mixed with disodium edetate (anticoagulant) and the oxygen-dissociation curve of each sample measured as in (A).

Data set [5] relates to whole homozygous human sickle-cell blood. The experiment in a line: Effect on sickling in vitro of whole homozygous human sickle-cell blood. The data set is classed as cell-based. Particulars: 3.0 mM, 60 mins, oxygen tension about 28 mm Hg; about 50% sickled at start; controls nearly 70%.
In another data set the test system is anaesthetized rats. The experiment in a line: Cardiovascular effects in anaesthetized rats. It is filed as in vivo, rat. As for the experimental part: Male Wistar rats weighing between 250-350 g were used. Anaesthesia was induced with 3-5% halothane in oxygen and maintained with a mixture of chloralose (60 mg/kg i.v.) and pentobarbitone (20 mg/kg i.v.). A femoral vein was cannulated for the administration of drugs and the ipsilateral femoral artery for measuring arterial blood pressure; heart rate was derived from the femoral pulse by a cardiotachometer. Body temperature was maintained at 38° C.
Five test rats were each given a series of increasing doses of compound (Ia) as a solution in 10%-saturated sodium bicarbonate (saturated sodium bicarbonate solution diluted 1:9). Sufficient time was allowed between doses for the variables to return either to the pre-dose level or to a steady state if full recovery was not attained. Measurements were made 2 mins. after dose or at maximum effect.
Control rats (3) were given a series of 0.2 ml. injections of the sodium bicarbonate vehicle (up to 15 injections) to assess any effect of sodium bicarbonate and of increasing extracellular fluid volume on blood pressure and heart rate.

In data set [6] the test system is haemoglobin. The experiment in a line: Effect on the oxygen-dissociation curve of whole homozygous human sickle-cell blood in vitro. The data set is classed as cell-based. As for the experimental part: Compound (Ia) was dissolved in isotonic saline containing sodium bicarbonate 25 mM. […]
Homozygous human sickle-cell blood (4 vols) was mixed with acid-citrate-dextrose anticoagulant (1 vol) and a portion of the mixture set aside as a control.

The structures appear in SMILES notation.

For `O=Cc1c(O)cccc1OCCCCC(=O)O` [Example 1, 5-(2-formyl-3-hydroxyphenoxy)pentanoic acid], the “Mean p50” value in the data set with haemoglobin [1] (3.0 mM, rat blood in vitro, 30 mins, 37° C., control 44.5) is 8.2 mm. Hg; with haemoglobin [2] (0.3 mM) it was 25.5 mm. Hg; in the data set on haemoglobin [2] (1.0 mM), 21.5 mm. Hg; in the data set with haemoglobin [2] (3.0 mM), 9.0 mm. Hg; in the data set with haemoglobin [4] (100 mg/kg i.v., vehicle 43.37), 22.37 mm. Hg; in the data set on haemoglobin [4] (500 mg/kg p.o., vehicle 42.75), 10.25 mm. Hg. Besides, the “Mean p50” value with haemoglobin [6] (3.0 mM, homozygous sickle-cell blood, 37° C., minimum 45 mins, three patients, control 51) is 10 mm. Hg. The “displacement of the oxygen-dissociation curve” value is recorded as “considerably left-displaced” in the data set on haemoglobin [1] (whole rat blood in vitro), “dose-related left-displacement” in the data set with haemoglobin [2] (whole normal human blood in vitro), “considerable left-displacement” with haemoglobin [4] (whole rat blood in vivo) and “considerable left-displacement” in the data set with haemoglobin [6] (whole homozygous (SS genotype) human sickle-cell blood in vitro). Further, in data set [3], the LD50 was about 1000 mg/kg. Also, the “proportion of sickled cells” value in data set [5] is “about 3%”. The “change in blood pressure” value in the data set with anaesthetized rats (32-128 mg/kg i.v., anaesthetized rats) is “Significant dose-dependent falls in pressure”. Further, the “change in heart rate” value in the data set on anaesthetized rats (after the 64 mg/kg dose, three rats, not statistically significant) is listed as “slight tachycardia”; with anaesthetized rats (anaesthetized rats, i.v.) it was “no marked changes in heart rate”. Besides, in the data set with anaesthetized rats (anaesthetized rats, i.v.), the “time of blood pressure recovery after each dose” value is at most 15 min. Also, the “change in systolic, diastolic or mean blood pressures” value in the data set with anaesthetized rats (up to 16 mg/kg i.v., anaesthetized rats) is “no appreciable change”.
